Test system: splenocytes
Assay: MβCD treatment of glycolipid-pulsed DCs, stimulation of autologous splenocytes in vitro
Assay type: cell-based, C57BL/6 mice
Details: DCs pulsed 18 hr, 10 mM MβCD 15 min, 24 hr culture
Protocol: Figure 7 Functional Consequences of Membrane Lipid Raft Association of Glycolipid-Loaded CD1d Molecules (A) C57BL/6 BMDCs were pulsed for 18 hr with the indicated glycolipids, washed, and incubated for 15 min in medium alone (hatched bars) or medium containing 10 mM MβCD (solid bars). Cells were then fixed (1% paraformaldehyde) and used for stimulating autologous splenocytes for 24 hr, after which supernatant concentrations of IFN-γ and IL-4 were measured. Dotted lines indicate the background levels of cytokines in cultures with BMDC pulsed with vehicle only. Means and standard deviations for triplicate cultures are shown, and results are representative of three experiments. ^∗∗p < 0.01 (ANOVA, Bonferroni post-test). (B) Effect of MβCD on in vivo presentation of αGalCer analogs. Splenic DCs were pulsed ex vivo with the indicated glycolipids for 18 hr and then incubated for 15 min in medium without (−, hatched bars) or with 10 mM MβCD (+, solid bars). After extensive washing, the cells were injected i.p. into naive C57BL/6 mice (10^6 cells/mouse). Serum was assayed for IL-4 at 2 hr and for IFN-γ at 24 hr postinjection. Data shown are means and standard deviations for pooled data from two experiments that had three mice per group. ^∗∗p < 0.01 (ANOVA, Bonferroni post-test); NS, not significant (p > 0.05).
For in vitro stimulation, murine iNKT hybridomas at 5 × 10^4 cells/well in 96-well plates were stimulated with an equal number of either JAWS II cells or transfected A20 cells in complete medium with glycolipids for 12 hr at 37°C, and levels of murine IL-2 secretion were determined. For some experiments, APCs were preincubated with glycolipids for 12 hr or fixed with paraformaldehyde (1% for 2 min at RT) prior to the addition of iNKT cell hybridomas. For in vitro stimulation of murine splenic iNKT cells, splenocytes from BALB/c or C57BL/6 mice were plated at 5 × 10^5 cells per well in complete medium in 96-well plates and stimulated with glycolipids for 48 hr at 37°C. Subsequently the levels of IL-4, IL-13, and IFN-γ in culture supernatants were quantified by capture ELISA. For assays with methyl-β-cyclodextrin (MβCD) treatment of APCs, we prepared splenic DCs with a CD11c^+ cell isolation kit from Miltenyi Biotech from mice that had been injected s.c. 14 days previously with 10^5 Flt3-ligand-secreting B16 melanoma cells to increase the yield ([Mach et al., 2000]). Purified CD11c^+ cells were cultured in complete medium for 18 hr with glycolipids (100 nM) as indicated, washed, and incubated at 37°C for 15 min in medium with or without 10 mM MβCD (Sigma-Aldrich) and subsequently fixed (1% paraformaldehyde) and cultured in 96-well plates at 2 × 10^5 cells/well with autologous splenocytes (4 × 10^5 cells per well). […]

In the case of `CCCCCCCCCCCCCCC(O)C(O)C(COC1OC(CO)C(O)C(O)C1O)NC(=O)CCCCCCCCC` (stereo not shown) [αGalCer-C10:0], the “effect of MβCD treatment of pulsed DCs on stimulation of IFN-γ production by splenocytes” value (shortened to “effect of MβCD treatment … by splenocytes”) is reported as “unaffected by MβCD”.
In the case of `CCCCCC=CCC=CCCCCCCCCCC(=O)NC(COC1OC(CO)C(O)C(O)C1O)C(O)C(O)CCCCCCCCCCCCCC` (stereo not shown) [αGalCer-C20:2], the “effect of MβCD treatment … by splenocytes” value is reported as “unaffected by MβCD”.
With `CCCCCCCCCCCCCCCCCCCCCCCCCC(=O)NC(COC1OC(CO)C(O)C(O)C1O)C(O)C(O)CCCCCCCCCCCCCC` (stereo not shown) [αGalCer-C26:0, reference compound] the “effect of MβCD treatment … by splenocytes” value was “markedly reduced” and the “effect of MβCD treatment of pulsed DCs on stimulation of IL-4” value was “no effect”.

Reference: publication PMC2719696, “Kinetics and Cellular Site of Glycolipid Loading Control the Outcome of Natural Killer T Cell Activation” (Immunity, 2009)
